# Test results as given in patent publication US9133104B2 (Chroma Therapeutics Ltd., priority 2005, dated 2015).
# Tested on: Hela cancer cell line
# Experiment: Cell inhibition assay (SRB cell viability), Hela
# Type: cell-based
# Settings: Homo sapiens, HeLa, 72 h, Hela cells, IC50 range
# Protocol: The corresponding cancer cell lines (Hela, U937 and HUT) growing in log phase were harvested and seeded at 1000 cells/well (200 ul final volume) into 96-well tissue culture plates. Following 24 h of cell growth cells were treated with compounds (final concentration of 20 uM). Plates were then re-incubated for a further 72 h before a sulphorhodamine B (SRB) cell viability assay was conducted according to Skehan 1990 J Natl Canc Inst 82, 1107-1112.
# Data were expressed as a percentage inhibition of the control, measured in the absence of inhibitor, as follows:— % inhibition=100−((S^i/S^o)×100) where S^i is the signal in the presence of inhibitor and S^o is the signal in the presence of DMSO. IC50 values were determined by non-linear regression analysis, after fitting the results of eight data points to the equation for sigmoidal dose response with variable slope (% activity against log concentration of compound), using Graphpad Prism software. […] NT=Not tested
row,IC50 [nM],Compound
1,> 3300,"O=C(CCCCCCC(=O)Nc1cccc(C(=O)N[C@H](C(=O)O)c2ccccc2)c1)NO [Compound 61, (S)-[3-(7-Hydroxycarbamoyl-heptanoylamino)-benzoylamino]phenyl-acetic acid]"
2,> 3300,"O=C(CCCCCCC(=O)Nc1cccc(CN[C@@H](Cc2ccccc2)C(=O)O)c1)NO [Compound 27, (S)-2-[3-(7-Hydroxycarbamoyl-heptanoylamino)-benzylamino]-3-phenyl-propionic acid]"

row,Compound,IC50 [nM]
1,"CC(C)(C)OC[C@H](NCc1cccc(NC(=O)CCCCCCC(=O)NO)c1)C(=O)O [Compound 33, (S)-3-tert-Butoxy-2-[3-(7-hydroxycarbamoyl-heptanoylamino)-benzylamino]-propionic acid]",> 3300

# Target: T1, histone deacetylase activity (HeLa nuclear extract)
# T1 construct: Histone deacetylase activity from crude nuclear extract derived from HeLa cells was used for screening
# Experiment: HDAC fluorescent activity assay (Biomol Fluor de Lys), HeLa nuclear extract
# Type: biochemical
# Settings: Fluor de Lys substrate, IC50 range
# Protocol: The ability of compounds to inhibit histone deacetylase activities was measured using the commercially available HDAC fluorescent activity assay from Biomol. In brief, the Fluor de Lys™ substrate, a lysine with an epsilon-amino acetylation, is incubated with the source of histone deacetylase activity (HeLa nuclear extract) in the presence or absence of inhibitor. Deacetylation of the substrate sensitises the substrate to Fluor de Lys™ developer, which generates a fluorophore. Thus, incubation of the substrate with a source of HDAC activity results in an increase in signal that is diminished in the presence of an HDAC inhibitor.
# Data are expressed as a percentage of the control, measured in the absence of inhibitor, with background signal being subtracted from all samples, as follows:— % activity=((S^i−B)/(S^o−B))×100 where S^i is the signal in the presence of substrate, enzyme and inhibitor, S^o is the signal in the presence of substrate, enzyme and the vehicle in which the inhibitor is dissolved, and B is the background signal measured in the absence of enzyme.
# IC50 values were determined by non-linear regression analysis, after fitting the results of eight data points to the equation for sigmoidal dose response with variable slope (% activity against log concentration of compound), using Graphpad Prism software.
# Histone deacetylase activity from crude nuclear extract derived from HeLa cells was used for screening. The preparation, purchased from 4C (Seneffe, Belgium), was prepared from HeLa cells harvested whilst in exponential growth phase. The nuclear extract is prepared according to Dignam JD1983 Nucl. Acid. Res. 11, 1475-1489, snap frozen in liquid nitrogen and stored at −80° C. The final buffer composition was 20 mM Hepes, 100 mM KCl, 0.2 mM EDTA, 0.5 mM DTT, 0.2 mM PMSF and 20% (v/v) glycerol.
row,IC50 [nM],Compound
1,101 to 1000,"O=C(CCCCCCC(=O)Nc1cccc(C(=O)N[C@H](C(=O)O)c2ccccc2)c1)NO [Compound 61, (S)-[3-(7-Hydroxycarbamoyl-heptanoylamino)-benzoylamino]phenyl-acetic acid]"
2,101 to 1000,"O=C(CCCCCCC(=O)Nc1cccc(CN[C@@H](Cc2ccccc2)C(=O)O)c1)NO [Compound 27, (S)-2-[3-(7-Hydroxycarbamoyl-heptanoylamino)-benzylamino]-3-phenyl-propionic acid]"
3,101 to 1000,"O=C(CCCCCCC(=O)Nc1cccc(OCCN[C@@H](Cc2ccccc2)C(=O)O)c1)NO [Compound 74, (S)-2-{2-[3-(7-Hydroxycarbamoyl-heptanoylamino)-phenoxy]-ethylamino}-3-phenyl-propionic acid]"
4,< 100,"CC(C)C[C@H](NCc1ccc(CNCc2ccc3cc(C(=O)NO)sc3c2)cc1)C(=O)O [Compound 123, (S)-2-(4-{[(2-Hydroxycarbamoyl-benzo[b]thiophen-6-ylmethyl)-amino]-methyl}-benzylamino)-4-methyl-pentanoic acid]"
5,101 to 1000,"CC(C)C[C@H](NCc1cccc(NC(=O)CCCCCCC(=O)NO)c1)C(=O)O [Compound 38, (S)-2-[3-(7-Hydroxycarbamoyl-heptanoylamino)-benzylamino]-4-methyl-pentanoic acid]"
6,101 to 1000,"O=C(CCCCCCC(=O)Nc1ccc(CN[C@@H](C(=O)O)c2ccccc2)cc1)NO [Compound 84, (R)-[4-(7-Hydroxycarbamoyl-heptanoylamino)-benzylamino]-phenyl-acetic acid]"
7,< 100,"C[C@H](NCc1ccc(CNCc2ccc3cc(C(=O)NO)sc3c2)cc1)C(=O)O [Compound 119, (S)-2-(4-{[(2-Hydroxycarbamoyl-benzo[b]thiophen-6-ylmethyl)-amino]-methyl}-benzylamino)-propionic acid]"
8,< 100,"O=C(O)CNCc1ccc(CNCc2ccc3cc(C(=O)NO)sc3c2)cc1 [Compound 121, (4-{[(2-Hydroxycarbamoyl-benzo[b]thiophen-6-ylmethyl)-amino]-methyl}-benzylamino)-acetic acid]"
9,101 to 1000,"CC(C)C[C@H](NC(=O)c1cccc(NC(=O)CCCCCCC(=O)NO)c1)C(=O)O [Compound 63, (S)-2-[3-(7-Hydroxycarbamoyl-heptanoylamino)-benzoylamino]-4-methyl-pentanoic acid]"
10,< 100,"O=C(Cc1ccc(OCCCC(=O)N[C@@H](Cc2ccccc2)C(=O)O)cc1)Nc1ccc2sc(C(=O)NO)cc2c1 [Compound 103, (S)-2-(4-{4-[(2-Hydroxycarbamoyl-benzo[b]thiophen-5-ylcarbamoyl)-methyl]-phenoxy}-butyrylamino)-3-phenyl-propionic acid]"
11,< 100,"O=C(NO)c1cc2ccc(CNCc3ccc(CN[C@H](C(=O)O)c4ccccc4)cc3)cc2s1 [Compound 125, (S)-(4-{[(2-Hydroxycarbamoyl-benzo[b]thiophen-6-ylmethyl)-amino]-methyl}-benzylamino)-phenyl-acetic acid]"
12,101 to 1000,"CC(C)C[C@H](NCC1CCC(CNCc2ccc3cc(C(=O)NO)sc3c2)CC1)C(=O)O (stereo partly drawn) [Compound 129, (S)-2-[(4-{[(2-Hydroxycarbamoyl-benzo[b]thiophen-6-ylmethyl)-amino]-methyl}-cyclohexylmethyl)-amino]-4-methyl-pentanoic acid]"
13,< 100,"O=C(CCCCCCC(=O)Nc1cccc(OCCCC(=O)N[C@H](C(=O)O)c2ccccc2)c1)NO [Compound 93, (S)-{4-[3-(7-Hydroxycarbamoyl-heptanoylamino)-phenoxy]-butyrylamino}-phenyl-acetic acid]"
14,101 to 1000,"CC(C)C[C@H](NC(=O)[C@@H]1Cc2ccc(NC(=O)CCCCCCC(=O)NO)cc2CN1)C(=O)O [Compound 97, (S)-2-{[(S)-7-(7-Hydroxycarbamoyl-heptanoylamino)-1,2,3,4-tetrahydro-isoquinoline-3-carbonyl]-amino}-4-methyl-pentanoic acid]"
15,101 to 1000,"O=C(CCCCCCC(=O)Nc1cccc(COC(=O)N[C@@H](Cc2ccccc2)C(=O)O)c1)NO [Compound 95, (S)-2-[3-(7-Hydroxycarbamoyl-heptanoylamino)-benzyloxycarbonylamino]3-phenyl-propionic acid]"
16,101 to 1000,"O=C(NO)c1cc2ccc(CNCC3CCC(CN[C@H](C(=O)O)c4ccccc4)CC3)cc2s1 (stereo partly drawn) [Compound 127, (S)-[(4-{[(2-Hydroxycarbamoyl-benzo[b]thiophen-6-ylmethyl)-amino]-methyl}-cyclohexylmethyl)-amino]-phenyl-acetic acid]"
17,< 100,"O=C(NO)c1cc2ccc(CNCc3ccc(CN[C@H](C(=O)O)C4CCCCC4)cc3)cc2s1 [Compound 117, (S)-Cyclohexyl-(4-{[(2-hydroxycarbamoyl-benzo[b]thiophen-6-ylmethyl)-amino]-methyl}-benzylamino)-acetic acid]"
18,101 to 1000,"CC(C)(C)SC[C@H](NCc1ccc(CNCc2ccc3cc(C(=O)NO)sc3c2)cc1)C(=O)O [Compound 114, (R)-3-tert-Butylsulfanyl-2-(4-{[(2-hydroxycarbamoyl-benzo[b]thiophen-6-ylmethyl)-amino]-methyl}-benzylamino)-propionic acid]"
19,101 to 1000,"O=C(NO)c1cc2ccc(CNCc3ccc(CN4CCC[C@H]4C(=O)O)cc3)cc2s1 [Compound 112, (S)-1-(4-{[(2-Hydroxycarbamoyl-benzo[b]thiophen-6-ylmethyl)-amino]-methyl}-benzyl)-pyrrolidine-2-carboxylic acid]"
20,< 100,"O=C(CCCCCCC(=O)Nc1cccc(CCN[C@H](C(=O)O)c2ccccc2)c1)NO [Compound 72, (S)-{2-[3-(7-Hydroxycarbamoyl-heptanoylamino)-phenyl]-ethylamino}-phenyl-acetic acid]"
21,101 to 1000,"O=C(CCCCCCC(=O)Nc1cccc(CNC(=O)N[C@H](C(=O)O)c2ccccc2)c1)NO [Compound 80, (S)-{3-[3-(7-Hydroxycarbamoyl-heptanoylamino)-benzyl]-ureido}-phenyl-acetic acid]"
22,< 100,"O=C(NO)c1cc2ccc(CNCc3ccc(CN[C@@H](Cc4ccccc4)C(=O)O)cc3)cc2s1 [Compound 105, (S)-2-(4-{[(2-Hydroxycarbamoyl-benzo[b]thiophen-6-ylmethyl)-amino]-methyl}-benzylamino)-3-phenyl-propionic]"
23,< 100,"O=C(CCCCCCC(=O)Nc1cccc(OCCCN[C@@H](Cc2ccccc2)C(=O)O)c1)NO [Compound 76, (S)-2-{3-[3-(7-Hydroxycarbamoyl-heptanoylamino)-phenoxy]-propylamino}-3-phenyl-propionic acid]"
24,< 100,"O=C(CCCCCCNC(=O)c1cc2cc(CCC(=O)N[C@@H](Cc3ccccc3)C(=O)O)ccc2[nH]1)NO [Compound 101, (S)-2-{3-[2-(6-Hydroxycarbamoyl-hexylcarbamoyl)-1H-indol-5-yl]-propionylamino}-3-phenyl-propionic acid]"
25,< 100,"O=C(CCCCCCC(=O)Nc1ccc(CN[C@H](C(=O)O)C2CCCCC2)cc1)NO [Compound 87, (S)-Cyclohexyl-[4-(7-hydroxycarbamoyl-heptanoylamino)-benzylamino]-acetic acid]"
26,101 to 1000,"O=C(CCCCCCC(=O)Nc1cccc(CNC(=O)N[C@@H](Cc2ccccc2)C(=O)O)c1)NO [Compound 82, (S)-2-{3-[3-(7-Hydroxycarbamoyl-heptanoylamino)-benzyl]-ureido}-3-phenyl-propionic acid]"
27,> 1000,"CC(C)C[C@H](NC(=O)c1ccc(NC(=O)CCCCCCC(=O)NO)cc1)C(=O)O [Compound 99, (S)-2-[4-(7-Hydroxycarbamoyl-heptanoylamino)-benzoylamino]-4-methyl-pentanoic acid]"

row,Compound,IC50 [nM]
1,"CC(C)(C)OC[C@H](NCc1cccc(NC(=O)CCCCCCC(=O)NO)c1)C(=O)O [Compound 33, (S)-3-tert-Butoxy-2-[3-(7-hydroxycarbamoyl-heptanoylamino)-benzylamino]-propionic acid]",101 to 1000
2,"CC(C)(C)OC[C@H](NCc1ccc(NC(=O)CCCCCCC(=O)NO)cc1)C(=O)O [Compound 90, (S)-3-tert-Butoxy-2-[4-(7-hydroxycarbamoyl-heptanoylamino)-benzylamino]-propionic acid]",101 to 1000
